Source: US9096591B2, “Tetracyclic compounds” (Medivation Technologies, Inc., priority 2007, dated 2015)
Where two headings read alike, the source gives them in different places.

Experiments:
[1] = molecular target: T1, human recombinant histamine H1 receptor (Homo sapiens, UniProt P35367); experiment: Histamine H1 radioligand binding ([3H]Pyrilamine)
T1 construct: expressed in transfected cells; host or cells: CHO cells
Experimental: To evaluate in radioligand binding assays the activity of compounds of the invention, human recombinant histamine H1 receptor expressed in Chinese hamster ovary (CHO) cells (De Backer M D et al. Biochem. Biophys. Res Comm. 197(3):1601, 1993) in a modified Tris-HCl buffer (50 mM Tris-HCl, pH 7.4, 2 mM MgCl2, 100 mM NaCl, 250 mM Sucrose) were used. […] Non-specific binding was estimated in the presence of 1 μM pyrilamine. Receptor proteins were filtered and washed, the filters were then counted to determine [^3H]pyrilamine specifically bound. […] Biochemical assay results are presented as the percent inhibition of specific binding in Table 5.
To evaluate in radioligand binding assays the activity of compounds of the invention, human recombinant histamine H1 receptor expressed in Chinese hamster ovary (CHO) cells (De Backer, M. D. et al., Biochem. Biophys. Res. Comm. 197(3):1601, 1993) in a modified Tris-HCl buffer (50 mM Tris-HCl, pH 7.4, 2 mM MgCl2, 100 mM NaCl, 250 mM Sucrose) was used. […] Non-specific binding was estimated in the presence of 1 μM pyrilamine. Receptor proteins were filtered and washed, the filters were then counted to determine [^3H]Pyrilamine specifically bound. Compounds were screened at 1 μM, using 1% DMSO as vehicle. Biochemical assay results are presented as the percent inhibition of specific binding in Table 6.

[2] = molecular target: T2, human recombinant serotonin (5-Hydroxytryptamine) 5-HT2A receptor (Homo sapiens, UniProt P28223); experiment: Serotonin 5-HT2A radioligand binding ([3H]Ketanserin); conditions: percent inhibition of specific binding
T2 construct: expressed in transfected cells; host or cells: CHO-K1 cells
T2 sequence (P28223 whole entry): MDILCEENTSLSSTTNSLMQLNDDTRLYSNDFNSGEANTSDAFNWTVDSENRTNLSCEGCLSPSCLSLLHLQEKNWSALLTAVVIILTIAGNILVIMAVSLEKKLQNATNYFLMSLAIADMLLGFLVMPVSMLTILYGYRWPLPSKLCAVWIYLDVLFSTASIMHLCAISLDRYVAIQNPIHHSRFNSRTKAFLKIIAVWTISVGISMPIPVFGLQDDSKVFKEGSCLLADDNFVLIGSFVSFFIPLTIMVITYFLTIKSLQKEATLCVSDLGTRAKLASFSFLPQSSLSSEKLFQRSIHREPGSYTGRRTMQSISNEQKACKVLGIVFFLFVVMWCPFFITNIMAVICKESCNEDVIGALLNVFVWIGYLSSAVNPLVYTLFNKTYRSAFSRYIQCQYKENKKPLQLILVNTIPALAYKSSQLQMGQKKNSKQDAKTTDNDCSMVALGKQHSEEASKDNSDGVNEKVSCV
Experimental: Compounds of the invention were incubated with 0.5 nM [^3H]Ketanserin for 60 minutes at 25° C. Non-specific binding was estimated in the presence of 1 μM Mianserin. Receptor proteins were filtered and washed, the filters were then counted to determine [^3H]Ketanserin specifically bound. […] Biochemical assay results are presented as the percent inhibition of specific binding in Table 6.

[3] = molecular target: T3, human recombinant serotonin (5-Hydroxytryptamine) 5-HT2C receptor (Homo sapiens, UniProt P28335); experiment: Serotonin 5-HT2C radioligand binding ([3H]Mesulergine); parameters: Inhibition of ligand binding, Ser. 5-HT2C: concentration or dose not given beside the values; conditions: percent inhibition of specific binding
T3 construct: expressed in transfected cells; host or cells: CHO-K1 cells
T3 sequence (P28335 33-458): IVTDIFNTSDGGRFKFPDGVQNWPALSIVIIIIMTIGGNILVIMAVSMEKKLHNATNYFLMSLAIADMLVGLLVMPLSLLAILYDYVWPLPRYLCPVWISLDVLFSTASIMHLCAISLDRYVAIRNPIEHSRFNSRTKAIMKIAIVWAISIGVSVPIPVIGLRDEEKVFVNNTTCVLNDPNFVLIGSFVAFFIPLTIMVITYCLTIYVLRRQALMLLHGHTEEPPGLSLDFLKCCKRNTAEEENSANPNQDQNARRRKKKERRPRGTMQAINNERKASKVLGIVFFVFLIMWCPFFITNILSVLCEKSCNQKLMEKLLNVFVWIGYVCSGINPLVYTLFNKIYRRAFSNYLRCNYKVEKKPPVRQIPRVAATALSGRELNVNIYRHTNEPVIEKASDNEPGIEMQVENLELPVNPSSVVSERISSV
Experimental: Compounds of the invention were incubated with 1 nM [^3H]Mesulergine for 60 minutes at 25° C. Non-specific binding was estimated in the presence of 1 μM Mianserin. Receptor proteins were filtered and washed, the filters were then counted to determine [^3H]Mesulergine specifically bound. […] Biochemical assay results are presented as the percent inhibition of specific binding in Table 6.

[4] = molecular target: T4, human recombinant serotonin (5-Hydroxytryptamine) 5-HT6 receptor (Homo sapiens, UniProt P50406); experiment: Serotonin 5-HT6 radioligand binding ([3H]LSD); parameters: Inhibition of ligand binding, Ser. 5-HT6: concentration or dose not given beside the values; conditions: percent inhibition of specific binding
T4 construct: expressed in transfected cells; host or cells: human HeLa cells
T4 sequence (P50406 whole entry): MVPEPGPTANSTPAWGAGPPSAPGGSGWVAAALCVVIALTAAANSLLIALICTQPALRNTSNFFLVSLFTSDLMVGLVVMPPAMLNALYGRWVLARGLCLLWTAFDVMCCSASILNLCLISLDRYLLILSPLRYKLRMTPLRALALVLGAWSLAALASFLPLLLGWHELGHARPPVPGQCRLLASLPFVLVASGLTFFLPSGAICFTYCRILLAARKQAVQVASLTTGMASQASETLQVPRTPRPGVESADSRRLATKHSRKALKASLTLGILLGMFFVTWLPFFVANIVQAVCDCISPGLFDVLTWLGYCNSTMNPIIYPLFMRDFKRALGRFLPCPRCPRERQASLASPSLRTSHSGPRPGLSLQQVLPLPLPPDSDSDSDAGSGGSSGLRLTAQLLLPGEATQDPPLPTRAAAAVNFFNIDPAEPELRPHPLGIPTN
Source text: Receptor proteins were filtered and washed, the filters were then counted to determine [3H]LSD specifically bound. […] Biochemical assay results are presented as the percent inhibition of specific binding in Table 6.

[5] = molecular target: T5, human recombinant adrenergic α2B receptor (Homo sapiens, UniProt P18089); experiment: Adrenergic α2B radioligand binding ([3H]Rauwolscine); parameters: Inhibition of ligand binding, Adren. alpha2B: concentration or dose not given beside the values; conditions: percent inhibition of specific binding
T5 construct: expressed in transfected cells; host or cells: CHO-K1 cells
T5 sequence (P18089 1-450): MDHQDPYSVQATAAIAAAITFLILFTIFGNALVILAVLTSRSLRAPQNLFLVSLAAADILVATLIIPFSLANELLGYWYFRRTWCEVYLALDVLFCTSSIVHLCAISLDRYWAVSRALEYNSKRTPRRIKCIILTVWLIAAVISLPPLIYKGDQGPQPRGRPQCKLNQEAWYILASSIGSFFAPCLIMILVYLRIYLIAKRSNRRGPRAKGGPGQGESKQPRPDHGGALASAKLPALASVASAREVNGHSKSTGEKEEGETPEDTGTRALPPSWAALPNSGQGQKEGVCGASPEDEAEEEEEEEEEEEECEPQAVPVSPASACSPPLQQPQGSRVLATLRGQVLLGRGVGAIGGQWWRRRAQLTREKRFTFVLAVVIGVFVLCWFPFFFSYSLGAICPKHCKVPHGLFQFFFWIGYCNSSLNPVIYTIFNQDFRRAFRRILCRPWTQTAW
Experimental: To evaluate in radioligand binding assays the activity of compounds of the invention, human recombinant adrenergic α2B receptor expressed in Chinese hamster ovary (CHO-K1) cells (Uhlen S et al. Eur J. Pharmacol. 343(1):93, 1998) in a modified Tris-HCl buffer (50 mM Tris-HCl, pH 7.4, 12.5 mM MgCl2, 1 mM EDTA, 0.2% BSA) was used. Compounds of the invention were incubated with 2.5 nM [^3H]Rauwolscine for 60 minutes at 25° C. Non-specific binding was estimated in the presence of 10 μM Prozosin. Receptor proteins were filtered and washed, the filters were then counted to determine [^3H]Rauwolscine specifically bound. […] Biochemical assay results are presented as the percent inhibition of specific binding in Table 6.

[6] = 1 μM compound, […] [3H]Pyrilamine, read-out: Histamine Binding H1, percent inhibition of specific binding
[7] = percent inhibition of specific binding, screened at 1 μM, read-out: Inhibition of ligand binding, Hist. H1

T1 sequence (P35367 whole entry): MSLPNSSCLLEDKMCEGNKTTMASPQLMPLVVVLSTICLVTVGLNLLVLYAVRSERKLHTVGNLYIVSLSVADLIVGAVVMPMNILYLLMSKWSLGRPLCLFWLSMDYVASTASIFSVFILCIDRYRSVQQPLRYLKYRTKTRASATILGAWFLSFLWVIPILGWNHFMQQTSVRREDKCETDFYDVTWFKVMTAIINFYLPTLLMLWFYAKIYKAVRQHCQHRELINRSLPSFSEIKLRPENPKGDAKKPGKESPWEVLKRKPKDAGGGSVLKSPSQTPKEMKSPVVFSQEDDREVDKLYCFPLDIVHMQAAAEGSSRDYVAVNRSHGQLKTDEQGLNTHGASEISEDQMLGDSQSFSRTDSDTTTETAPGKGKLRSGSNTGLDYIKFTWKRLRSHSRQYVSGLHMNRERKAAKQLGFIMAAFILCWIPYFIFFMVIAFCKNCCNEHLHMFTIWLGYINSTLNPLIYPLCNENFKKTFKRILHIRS

## Cc1ccc(CCn2c3c(c4ccccc42)CN(C)CC3)cc1 [Compound 1, 2,3,4,5-tetrahydro-2-methyl-5-(4-methylphenethyl)-1H-pyrido[4,3-b]indole]
[1]; 0.03 μM compound, […] [3H]Pyrilamine, read-out: Histamine Binding H1, percent inhibition of specific binding
  inhibition at 0.03 µM: 32%
[1]; 0.1 μM compound, […] [3H]Pyrilamine, read-out: Histamine Binding H1, percent inhibition of specific binding
  inhibition at 0.1 µM: 56%
[1]; [6]
  inhibition at 1 µM: 91%
[1]; [7]
  inhibition at 1 µM: 91%
[2]
  Inhibition of ligand binding, Ser. 5-HT2A: 95%
[3]
  Inhibition of ligand binding, Ser. 5-HT2C: 95%
[4]
  Inhibition of ligand binding, Ser. 5-HT6: 87%

## CN1CCc2c(c3cc(Cl)ccc3n2CC(=O)N2CCCCC2)C1 [Compound 236, 2-(8-chloro-1,2,3,4-tetrahydro-2-methylpyrido[4,3-b]indol-5-yl)-1-(piperidin-1-yl)ethanone]
[1]; [6]
  inhibition at 1 µM: 42%
[1]; [7]
  inhibition at 1 µM: 42%
[5]
  Inhibition of ligand binding, Adren. alpha2B: 9%
[3]
  Inhibition of ligand binding, Ser. 5-HT2C: 54%
[4]
  Inhibition of ligand binding, Ser. 5-HT6: 18%

## CC1CCN(C(=O)Cn2c3c(c4cc(Cl)ccc42)CN(C)CC3)CC1 [Compound 237, 2-(8-chloro-1,2,3,4-tetrahydro-2-methylpyrido[4,3-b]indol-5-yl)-1-(4-methylpiperidin-1-yl)ethanone]
[1]; [6]
  inhibition at 1 µM: 77%
[1]; [7]
  inhibition at 1 µM: 77%
[5]
  Inhibition of ligand binding, Adren. alpha2B: 12%
[3]
  Inhibition of ligand binding, Ser. 5-HT2C: 36%
[4]
  Inhibition of ligand binding, Ser. 5-HT6: 20%

## CN1CCc2c(c3cc(Cl)ccc3n2CC(=O)N2CCOCC2)C1 [Compound 238, 2-(8-chloro-1,2,3,4-tetrahydro-2-methylpyrido[4,3-b]indol-5-yl)-1-morpholinoethanone]
[1]; [6]
  inhibition at 1 µM: 26%
[1]; [7]
  inhibition at 1 µM: 26%
[5]
  Inhibition of ligand binding, Adren. alpha2B: 14%
[3]
  Inhibition of ligand binding, Ser. 5-HT2C: 20%
[4]
  Inhibition of ligand binding, Ser. 5-HT6: 5%

## CN1CCc2c(c3cc(Cl)ccc3n2CC(=O)N2CCSCC2)C1 [Compound 239, 2-(8-chloro-1,2,3,4-tetrahydro-2-methylpyrido[4,3-b]indol-5-yl)-1-thiomorpholinoethanone]
[1]; [6]
  inhibition at 1 µM: 50%
[1]; [7]
  inhibition at 1 µM: 50%
[5]
  Inhibition of ligand binding, Adren. alpha2B: 24%
[3]
  Inhibition of ligand binding, Ser. 5-HT2C: 65%
[4]
  Inhibition of ligand binding, Ser. 5-HT6: 8%

## CN1CCc2c(c3cc(Cl)ccc3n2CCC(=O)N2CCCC2)C1 [Compound 240, 3-(8-chloro-1,2,3,4-tetrahydro-2-methylpyrido[4,3-b]indol-5-yl)-1-(pyrrolidin-1-yl)propan-1-one]
[1]; [6]
  inhibition at 1 µM: 60%
[1]; [7]
  inhibition at 1 µM: 60%
[5]
  Inhibition of ligand binding, Adren. alpha2B: 50%
[3]
  Inhibition of ligand binding, Ser. 5-HT2C: 27%
[4]
  Inhibition of ligand binding, Ser. 5-HT6: 25%

## CN1CCc2c(c3cc(Cl)ccc3n2CC(=O)N2CCCC2)C1 [Compound 243, 2-(8-chloro-1,2,3,4-tetrahydro-2-methylpyrido[4,3-b]indol-5-yl)-1-(pyrrolidin-1-yl)ethanone]
[1]; [6]
  inhibition at 1 µM: 84%
[1]; [7]
  inhibition at 1 µM: 84%
[5]
  Inhibition of ligand binding, Adren. alpha2B: 6%
[3]
  Inhibition of ligand binding, Ser. 5-HT2C: 33%
[4]
  Inhibition of ligand binding, Ser. 5-HT6: 12%

## CN1CCc2c(c3cc(Cl)ccc3n2CC(=O)N2CCNCC2)C1 [Compound 244]
[1]; [6]
  inhibition at 1 µM: 15%
[1]; [7]
  inhibition at 1 µM: 15%
[5]
  Inhibition of ligand binding, Adren. alpha2B: 13%
[3]
  Inhibition of ligand binding, Ser. 5-HT2C: 22%
[4]
  Inhibition of ligand binding, Ser. 5-HT6: 13%

## CC1CN(C(=O)Cn2c3c(c4cc(Cl)ccc42)CN(C)CC3)CC(C)N1 (stereo not drawn) [Compound 245]
[1]; [6]
  inhibition at 1 µM: 22%
[1]; [7]
  inhibition at 1 µM: 22%
[5]
  Inhibition of ligand binding, Adren. alpha2B: 19%
[3]
  Inhibition of ligand binding, Ser. 5-HT2C: 20%
[4]
  Inhibition of ligand binding, Ser. 5-HT6: −2%

## CN1CCc2c(c3cc(Cl)ccc3n2CC(=O)N2CCNC(=O)C2)C1 [Compound 246]
[1]; [6]
  inhibition at 1 µM: 18%
[1]; [7]
  inhibition at 1 µM: 18%
[5]
  Inhibition of ligand binding, Adren. alpha2B: 11%
[3]
  Inhibition of ligand binding, Ser. 5-HT2C: 59%
[4]
  Inhibition of ligand binding, Ser. 5-HT6: 2%

## CC(=O)N1CCN(C(=O)Cn2c3c(c4cc(Cl)ccc42)CN(C)CC3)CC1 [Compound 297, 1-(4-Acetyl-piperazin-1-yl)-2-(8-chloro-2-methyl-1,2,3,4-tetrahydro-pyrido[4,3-b]indol-5-yl)-ethanone]
[1]; [7]
  inhibition at 1 µM: 43%
[5]
  Inhibition of ligand binding, Adren. alpha2B: 7%
[3]
  Inhibition of ligand binding, Ser. 5-HT2C: 11%
[4]
  Inhibition of ligand binding, Ser. 5-HT6: 9%

## CC1CCCCN1C(=O)Cn1c2c(c3cc(Cl)ccc31)CN(C)CC2 (stereo not drawn) [Compound 321, 2-(8-chloro-1,2,3,4-tetrahydro-2-methylpyrido[4,3-b]indol-5-yl)-1-(2-methylpiperidin-1-yl)ethanone]
[1]; [7]
  inhibition at 1 µM: 50%
[5]
  Inhibition of ligand binding, Adren. alpha2B: 25%
[3]
  Inhibition of ligand binding, Ser. 5-HT2C: 61%
[4]
  Inhibition of ligand binding, Ser. 5-HT6: 15%
